Results reported in article PMC5218480 (PLoS ONE, 2017).

Tested on: MV-4-11 cells
Assay: Gene expression microarray analysis (Affymetrix PrimeView) and GSEA
Type: cell-based, human
Design: RFU PODN (11730768_x_at) / Fold change /veh PODN (11730768_x_at) / RFU LINC00158 (11744669_a_at) / Fold change /veh LINC00158 (11744669_a_at) / RFU DUSP10 (11751237_a_at) / Fold change /veh DUSP10 (11751237_a_at) / RFU ID3 (11757404_x_at) / Fold change /veh ID3 (11757404_x_at) / RFU PLEKHG5 (11737974_s_at) / Fold change /veh PLEKHG5 (11737974_s_at) / RFU LRRC4B (11730491_at) / Fold change /veh LRRC4B (11730491_at) / RFU GIMAP4 (11747438_a_at) / Fold change /veh GIMAP4 (11747438_a_at) / RFU KRT8 (11758183_x_at) / Fold change /veh KRT8 (11758183_x_at) / RFU CNN1 (11734310_a_at) / Fold change /veh CNN1 (11734310_a_at) / RFU VPS37D (11726825_at) / Fold change /veh VPS37D (11726825_at) / RFU C10orf10 (11716522_x_at) / Fold change /veh C10orf10 (11716522_x_at) / RFU KIR2DL2 /// KIR2DL4 /// KIR2DL5A /// KIR2DL5B /// KIR2DS1 /// KIR2DS2 /// KIR2DS3 /// KIR2DS4 /// KIR3DL3 /// KIR3DL3 /// KIR3DS1 (11738374_at) / Fold change /veh KIR2DL2 /// KIR2DL4 /// KIR2DL5A /// KIR2DL5B /// KIR2DS1 /// KIR2DS2 /// KIR2DS3 /// KIR2DS4 /// KIR3DL3 /// KIR3DL3 /// KIR3DS1 (11738374_at) / RFU C1QL1 (11718748_at) / Fold change /veh C1QL1 (11718748_at) / RFU TMPRSS4 (11747572_a_at) / Fold change /veh TMPRSS4 (11747572_a_at) / RFU HAMP (11756126_x_at) / Fold change /veh HAMP (11756126_x_at) / RFU RNFT2 (11725882_a_at) / Fold change /veh RNFT2 (11725882_a_at) / RFU NR4A2 (11747474_a_at) / Fold change /veh NR4A2 (11747474_a_at) / RFU ABCC12 (11746883_a_at) / Fold change /veh ABCC12 (11746883_a_at) / RFU TMEM136 (11760407_x_at) / Fold change /veh TMEM136 (11760407_x_at) / RFU CLDN22 /// WWC2 (11732394_at) / Fold change /veh CLDN22 /// WWC2 (11732394_at) / RFU HLA-DPB1 (11760878_x_at) / Fold change /veh HLA-DPB1 (11760878_x_at) / RFU SPINT1 (11716480_a_at) / Fold change /veh SPINT1 (11716480_a_at) / RFU GAP43 (11754022_s_at) / Fold change /veh GAP43 (11754022_s_at) / RFU A4GNT (11735810_at) / Fold change /veh A4GNT (11735810_at) / RFU PRB3 (11715151_x_at) / Fold change /veh PRB3 (11715151_x_at) / RFU TUBB4B (11761932_at) / Fold change /veh TUBB4B (11761932_at) / RFU CAPN14 (11732068_a_at) / Fold change /veh CAPN14 (11732068_a_at) / RFU TMCC2 (11721928_a_at) / Fold change /veh TMCC2 (11721928_a_at) / RFU IRGQ (11745062_a_at) / Fold change /veh IRGQ (11745062_a_at) / RFU FAM174B (11720279_a_at) / Fold change /veh FAM174B (11720279_a_at) / RFU TMPRSS4 (11748680_a_at) / Fold change /veh TMPRSS4 (11748680_a_at) / RFU FAM212B (11763350_a_at) / Fold change /veh FAM212B (11763350_a_at) / RFU PLEKHG5 (11743358_a_at) / Fold change /veh PLEKHG5 (11743358_a_at) / RFU ZSCAN30 (11745921_a_at) / Fold change /veh ZSCAN30 (11745921_a_at) / RFU CMKLR1 (11741424_a_at) / Fold change /veh CMKLR1 (11741424_a_at) / RFU LOC101060620 /// MAPK8IP1 (11723275_at) / Fold change /veh LOC101060620 /// MAPK8IP1 (11723275_at) / RFU SPTSSB (11747773_x_at) / Fold change /veh SPTSSB (11747773_x_at) / RFU PRSS12 (11739890_at) / Fold change /veh PRSS12 (11739890_at) / RFU BIN1 (11741810_x_at) / Fold change /veh BIN1 (11741810_x_at) / RFU WNT11 (11732464_a_at) / Fold change /veh WNT11 (11732464_a_at) / RFU C10orf10 (11716521_a_at) / Fold change /veh C10orf10 (11716521_a_at) / RFU C5orf56 (11738089_at) / Fold change /veh C5orf56 (11738089_at) / RFU CYB561 (11721691_x_at) / Fold change /veh CYB561 (11721691_x_at) / RFU ANKRD19P (11752326_a_at) / Fold change /veh ANKRD19P (11752326_a_at) / RFU OR2T12 /// OR2T33 /// OR2T8 (11738714_s_at) / Fold change /veh OR2T12 /// OR2T33 /// OR2T8 (11738714_s_at) / RFU VCAN (11748164_a_at) / Fold change /veh VCAN (11748164_a_at) / RFU JSRP1 (11732532_at) / Fold change /veh JSRP1 (11732532_at) / RFU KRTAP10-11 (11738290_x_at) / Fold change /veh KRTAP10-11 (11738290_x_at) / RFU MYO3A (11730013_a_at) / Fold change /veh MYO3A (11730013_a_at) / RFU EBF3 (11725865_a_at) / Fold change /veh EBF3 (11725865_a_at) / RFU CAMK2N1 (11719241_x_at) / Fold change /veh CAMK2N1 (11719241_x_at) / RFU C5orf56 (11738088_a_at) / Fold change /veh C5orf56 (11738088_a_at) / RFU OLFML3 (11715873_a_at) / Fold change /veh OLFML3 (11715873_a_at) / RFU LOC100653217 /// NTM (11731650_a_at) / Fold change /veh LOC100653217 /// NTM (11731650_a_at) / RFU MAPK11 (11762145_a_at) / Fold change /veh MAPK11 (11762145_a_at) / RFU FIZ1 (11724087_x_at) / Fold change /veh FIZ1 (11724087_x_at) / RFU OASL (11726364_x_at) / Fold change /veh OASL (11726364_x_at) / RFU SOX15 (11748057_x_at) / Fold change /veh SOX15 (11748057_x_at) / RFU CD79A (11719716_a_at) / Fold change /veh CD79A (11719716_a_at) / RFU HIST1H1D (11736915_at) / Fold change /veh HIST1H1D (11736915_at) / RFU CASKIN2 (11723855_a_at) / Fold change /veh CASKIN2 (11723855_a_at) / RFU LOC730098 (11760151_x_at) / Fold change /veh LOC730098 (11760151_x_at) / RFU OR4N2 (11742367_at) / Fold change /veh OR4N2 (11742367_at) / RFU PRRT2 (11749266_a_at) / Fold change /veh PRRT2 (11749266_a_at) / RFU SNX32 (11753110_a_at) / Fold change /veh SNX32 (11753110_a_at) / RFU CDHR5 (11726645_a_at) / Fold change /veh CDHR5 (11726645_a_at) / RFU RCAN1 (11760418_a_at) / Fold change /veh RCAN1 (11760418_a_at) / RFU FAM167A (11723789_a_at) / Fold change /veh FAM167A (11723789_a_at) / RFU FAM26E (11764081_at) / Fold change /veh FAM26E (11764081_at) / RFU ISYNA1 (11749810_s_at) / Fold change /veh ISYNA1 (11749810_s_at) / RFU ACY1 (11761880_at) / Fold change /veh ACY1 (11761880_at) / RFU 11764098_at / Fold change /veh 11764098_at / RFU SAMD14 (11745864_x_at) / Fold change /veh SAMD14 (11745864_x_at) / RFU NPB (11741838_a_at) / Fold change /veh NPB (11741838_a_at) / RFU TMPRSS6 (11731388_a_at) / Fold change /veh TMPRSS6 (11731388_a_at) / RFU KRTAP10-2 (11738614_at) / Fold change /veh KRTAP10-2 (11738614_at) / RFU ARHGAP8 /// PRR5-ARHGAP8 (11727945_x_at) / Fold change /veh ARHGAP8 /// PRR5-ARHGAP8 (11727945_x_at) / RFU KRTAP5-7 /// NADSYN1 (11734609_at) / Fold change /veh KRTAP5-7 /// NADSYN1 (11734609_at) / RFU RASL12 (11751679_a_at) / Fold change /veh RASL12 (11751679_a_at) / RFU CDKN2B (11736163_a_at) / Fold change /veh CDKN2B (11736163_a_at) / RFU PRF1 (11729649_at) / Fold change /veh PRF1 (11729649_at) / RFU, ZNF638 /// ZNF638-IT1 / Fold change vs veh, ZNF638 /// ZNF638-IT1 / RFU, PANK3 / Fold change vs veh, PANK3 / RFU, SH3YL1 / Fold change vs veh, SH3YL1 / RFU, ZEB2 / Fold change vs veh, ZEB2 / RFU, NRIP1 / Fold change vs veh, NRIP1 / RFU, PTTG1IP / Fold change vs veh, PTTG1IP / RFU, CAPN2 / Fold change vs veh, CAPN2 / RFU, MED14 / Fold change vs veh, MED14 / RFU, SNORA58 / Fold change vs veh, SNORA58 / RFU, C1orf63 / Fold change vs veh, C1orf63 / RFU, LRRFIP1 / Fold change vs veh, LRRFIP1 / RFU, NDUFAF7 / Fold change vs veh, NDUFAF7 / RFU, SLC12A2 / Fold change vs veh, SLC12A2 / RFU, IBTK / Fold change vs veh, IBTK / RFU, ESF1 / Fold change vs veh, ESF1 / Fold change vs veh, TMEM50B / RFU, TAOK1 / Fold change vs veh, TAOK1 / RFU, ACBD3 / Fold change vs veh, ACBD3 / RFU, TMA16 / Fold change vs veh, TMA16 / RFU, RWDD3 / Fold change vs veh, RWDD3 / RFU, BCAT1 / Fold change vs veh, BCAT1 / RFU, EDEM3 / Fold change vs veh, EDEM3 / RFU, TMEM33 / Fold change vs veh, TMEM33 / RFU, WDR75 / Fold change vs veh, WDR75 / RFU, AHCTF1 / Fold change vs veh, AHCTF1 / RFU, TFRC / Fold change vs veh, TFRC / RFU, ZDHHC17 / Fold change vs veh, ZDHHC17 / RFU, NOM1 / Fold change vs veh, NOM1 / RFU, ARL8B / Fold change vs veh, ARL8B / RFU, ZBTB11 / Fold change vs veh, ZBTB11 / RFU, TAMM41 / Fold change vs veh, TAMM41 / RFU, KIAA1704 /// LOC100996395 / Fold change vs veh, KIAA1704 /// LOC100996395 / RFU, ING1 / Fold change vs veh, ING1 / RFU, TRMT61B / Fold change vs veh, TRMT61B / RFU, FUBP3 / Fold change vs veh, FUBP3 / RFU, TP53 / Fold change vs veh, TP53 / RFU, TNKS2 / Fold change vs veh, TNKS2 / RFU, ZFP14 / Fold change vs veh, ZFP14 / RFU, ACTR2 / Fold change vs veh, ACTR2 / RFU, PPP3R1 / Fold change vs veh, PPP3R1 / RFU, PIK3R1 / Fold change vs veh, PIK3R1 / RFU, HNRNPA1 / Fold change vs veh, HNRNPA1 / RFU, RNF170 / Fold change vs veh, RNF170 / RFU, ZNF28 / Fold change vs veh, ZNF28 / RFU, RNGTT / Fold change vs veh, RNGTT / RFU, OGT / Fold change vs veh, OGT / RFU, BRD1 / Fold change vs veh, BRD1 / RFU, MARS / Fold change vs veh, MARS / RFU, ZNF655 / Fold change vs veh, ZNF655 / RFU, FAHD1 / Fold change vs veh, FAHD1 / RFU, BDP1 / Fold change vs veh, BDP1 / RFU, LRRCC1 / Fold change vs veh, LRRCC1 / RFU, ARID1A / Fold change vs veh, ARID1A / RFU, ZNF146 / Fold change vs veh, ZNF146 / RFU, ZNF330 / Fold change vs veh, ZNF330 / RFU, GPN3 / Fold change vs veh, GPN3 / RFU, C9orf123 / Fold change vs veh, C9orf123 / RFU, N4BP2L2 / Fold change vs veh, N4BP2L2 / RFU, ARFIP1 / Fold change vs veh, ARFIP1 / RFU, FAM179B / Fold change vs veh, FAM179B / RFU, BCL10 / Fold change vs veh, BCL10 / RFU, UHRF1BP1L / Fold change vs veh, UHRF1BP1L / RFU, BET1 / Fold change vs veh, BET1 / RFU, CNOT2 / Fold change vs veh, CNOT2 / RFU, ZNF268 / Fold change vs veh, ZNF268 / Fold change vs veh, ZNF507 / RFU, DGCR2 / Fold change vs veh, DGCR2 / RFU, WDSUB1 / Fold change vs veh, WDSUB1 / Fold change vs veh, HSP90B1 /// MIR3652 / RFU, ADSS / Fold change vs veh, ADSS / RFU, GK / Fold change vs veh, GK / RFU, ZNF148 / Fold change vs veh, ZNF148 / RFU, TAF9 / Fold change vs veh, TAF9 / RFU, SLC1A5 / Fold change vs veh, SLC1A5 / RFU, SLMO2 / Fold change vs veh, SLMO2 / RFU, ABCC4 / Fold change vs veh, ABCC4 / RFU, LOC101060439 /// RAP1B / Fold change vs veh, LOC101060439 /// RAP1B / RFU, RFX7 / Fold change vs veh, RFX7 / RFU, GTPBP10 / Fold change vs veh, GTPBP10 / RFU, CNEP1R1 / Fold change vs veh, CNEP1R1 / RFU, BIVM-ERCC5 /// ERCC5 / Fold change vs veh, BIVM-ERCC5 /// ERCC5 / RFU, ILF3 / Fold change vs veh, ILF3 / RFU 11762660_at / Fold change /veh 11762660_at / RFU VCAN (11757783_s_at) / Fold change /veh VCAN (11757783_s_at) / RFU DDX43 (11728927_at) / Fold change /veh DDX43 (11728927_at) / RFU KRT8 (11758188_x_at) / Fold change /veh KRT8 (11758188_x_at) / RFU NKD1 (11759106_at) / Fold change /veh NKD1 (11759106_at) / RFU SRD5A1 (11742802_a_at) / Fold change /veh SRD5A1 (11742802_a_at) / RFU TPSAB1 /// TPSB2 (11721975_s_at) / Fold change /veh TPSAB1 /// TPSB2 (11721975_s_at) / RFU GSTM3 (11746129_a_at) / Fold change /veh GSTM3 (11746129_a_at) / RFU IL23R (11737362_x_at) / Fold change /veh IL23R (11737362_x_at) / RFU TMEM51 (11727254_a_at) / Fold change /veh TMEM51 (11727254_a_at) / RFU PIWIL2 (11732686_x_at) / Fold change /veh PIWIL2 (11732686_x_at) / RFU ORM1 (11744905_x_at) / Fold change /veh ORM1 (11744905_x_at) / RFU CCDC152 (11743942_at) / Fold change /veh CCDC152 (11743942_at) / RFU ECM1 (11717891_a_at) / Fold change /veh ECM1 (11717891_a_at) / RFU IL23R (11748794_a_at) / Fold change /veh IL23R (11748794_a_at) / RFU TNFAIP8L3 (11732012_x_at) / Fold change /veh TNFAIP8L3 (11732012_x_at) / RFU MBOAT4 (11741988_at) / Fold change /veh MBOAT4 (11741988_at) / RFU 11764193_at / Fold change /veh 11764193_at / RFU TMEM53 (11763286_at) / Fold change /veh TMEM53 (11763286_at) / RFU MAGEB2 (11727129_at) / Fold change /veh MAGEB2 (11727129_at) / RFU TMEM200A (11744735_a_at) / Fold change /veh TMEM200A (11744735_a_at) / RFU CCDC152 (11751479_a_at) / Fold change /veh CCDC152 (11751479_a_at) / RFU FAM211A (11726209_a_at) / Fold change /veh FAM211A (11726209_a_at) / RFU RGS16 (11746705_a_at) / Fold change /veh RGS16 (11746705_a_at) / RFU VCAN (11755009_s_at) / Fold change /veh VCAN (11755009_s_at) / RFU RHOB (11743442_s_at) / Fold change /veh RHOB (11743442_s_at) / RFU RGS16 (11720943_a_at) / Fold change /veh RGS16 (11720943_a_at) / RFU RGS16 (11720944_at) / Fold change /veh RGS16 (11720944_at) / RFU, VPS4B / Fold change vs veh, VPS4B / RFU, CREB1 / Fold change vs veh, CREB1 / RFU, DNAJC13 / Fold change vs veh, DNAJC13 / RFU, GNAQ / Fold change vs veh, GNAQ / RFU, CDK5R1 / Fold change vs veh, CDK5R1 / RFU, ZRANB3 / Fold change vs veh, ZRANB3 / RFU, CUL4A / Fold change vs veh, CUL4A / RFU, CCNY / Fold change vs veh, CCNY / RFU, UFL1 / Fold change vs veh, UFL1 / RFU, COG3 / Fold change vs veh, COG3 / RFU, DIAPH2 / Fold change vs veh, DIAPH2 / RFU, SKA2 / Fold change vs veh, SKA2 / RFU, AFF3 / Fold change vs veh, AFF3 / RFU, LMF1 / Fold change vs veh, LMF1 / RFU, IPO11 / Fold change vs veh, IPO11 / RFU, DFFB / Fold change vs veh, DFFB / RFU, FOXP1 / Fold change vs veh, FOXP1 / RFU, CARD8 / Fold change vs veh, CARD8 / RFU, STRN3 / Fold change vs veh, STRN3 / RFU, ADK / Fold change vs veh, ADK / RFU, RASSF2 / Fold change vs veh, RASSF2 / RFU, WIPF1 / Fold change vs veh, WIPF1 / RFU, LARP1B / Fold change vs veh, LARP1B / RFU, RASA1 / Fold change vs veh, RASA1 / RFU, RB1 / Fold change vs veh, RB1 / RFU, PPFIA1 / Fold change vs veh, PPFIA1 / RFU, MAT2A / Fold change vs veh, MAT2A / RFU, CCT5 / Fold change vs veh, CCT5 / RFU, WDR92 / Fold change vs veh, WDR92 / RFU, CUX1 / Fold change vs veh, CUX1 / RFU, TTC7A / Fold change vs veh, TTC7A / RFU, TMEM135 / Fold change vs veh, TMEM135 / RFU, DEPTOR / Fold change vs veh, DEPTOR / RFU, CPM / Fold change vs veh, CPM / RFU, DNAJB6 / Fold change vs veh, DNAJB6 / RFU, CACNA2D3 / Fold change vs veh, CACNA2D3 / RFU, DTX4 / Fold change vs veh, DTX4 / RFU, TFCP2 / Fold change vs veh, TFCP2 / RFU, GMCL1 /// GMCL1P1 / Fold change vs veh, GMCL1 /// GMCL1P1 / RFU, AEBP2 / Fold change vs veh, AEBP2 / RFU, SNHG1 /// SNORD22 /// SNORD25 /// SNORD26 /// SNORD27 /// SNORD28 /// SNORD29 /// SNORD31 / Fold change vs veh, SNHG1 /// SNORD22 /// SNORD25 /// SNORD26 /// SNORD27 /// SNORD28 /// SNORD29 /// SNORD31 / Fold change (Aza/veh), C12orf56 (ProbeSet 11735607_a_at) / Fold change (ACY-1035/veh), C12orf56 (ProbeSet 11735607_a_at) / Fold change (Aza/veh), FGFR1OP (ProbeSet 11751329_s_at) / Fold change (ACY-1035/veh), FGFR1OP (ProbeSet 11751329_s_at) / Fold change (Aza/veh), VPS36 (ProbeSet 11739960_a_at) / Fold change (ACY-1035/veh), VPS36 (ProbeSet 11739960_a_at) / RFU SYPL1 (11715823_x_at) / Fold change /veh SYPL1 (11715823_x_at) / RFU IGFBP7 (11715501_s_at) / Fold change /veh IGFBP7 (11715501_s_at) / RFU REEP3 (11722064_at) / Fold change /veh REEP3 (11722064_at) / RFU IGLL1 (11728026_x_at) / Fold change /veh IGLL1 (11728026_x_at): dose or concentration left out as unconfirmed
Conditions: ProbeSet 11733176_x_at; LIST B

Nc1ncn([C@@H]2O[C@H](CO)[C@@H](O)[C@H]2O)c(=O)n1 [azacitidine]
Fold change vs veh, ZNF507: 0.97
